Experimental data taken from the supplement of paper PMC10307832.

Tests used:
Assay in all cases: relative viability (nuclei count vs DMSO), 5 days (fraction); higher = more cells survive
BAM7 + Crizotinib = compound: CCOC1=CC=CC=C1N=NC2=C(NN(C2=O)C3=NC(=CS3)C4=CC=CC=C4)C [BAM7] + C[C@@H](Oc1cc(-c2cnn(C3CCNCC3)c2)cnc1N)c1c(Cl)ccc(F)c1Cl [Crizotinib] (partner 1 µM)
Procedure, shortened: (§1)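 Dosing by pin tool came one day after lung cancer cell lines were seeded in 1536-well plates, using either one drug or a fixed anchor-drug dose plus five library-drug doses (not always all listed) in √10 steps. After 5 days, nuclei were counted on 4× images. Relative viability is treated-well nuclei count divided by vehicle-well nuclei count, and values are medians of duplicate plates.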

[1] = compound: CCn1c(-c2nonc2N)nc2c(C#CC(C)(C)O)ncc(OC[C@H]3CCCNC3)c21 + Cc1cc(Nc2cc(N3CCN(C)CC3)nc(Sc3ccc(NC(=O)C4CC4)cc3)n2)n[nH]1 [Tozasertib] (partner 0.1 µM)
Procedure, shortened: as §1

BAM7 + Decitabine = compound: CCOC1=CC=CC=C1N=NC2=C(NN(C2=O)C3=NC(=CS3)C4=CC=CC=C4)C [BAM7] + Nc1ncn([C@H]2C[C@H](O)[C@@H](CO)O2)c(=O)n1 [Decitabine] (partner 2 µM)
Procedure, shortened: as §1

[2] = compound: CCn1c(-c2nonc2N)nc2c(C#CC(C)(C)O)ncc(OC[C@H]3CCCNC3)c21 + O=C(CCCCCCC(=O)Nc1ccccc1)NO [Vorinostat] (partner 1 µM)
Procedure, shortened: as §1

| Cell Line | relative viability (BAM7 + Crizotinib; first compound 0.5 µM) | relative viability (BAM7 + Crizotinib; first compound 5 µM) | relative viability (BAM7 + Crizotinib; first compound 15.81 µM) | relative viability (BAM7 + Crizotinib; first compound 50 µM) | relative viability ([1]; first compound 0.01 µM) | relative viability ([1]; first compound 0.03162 µM) | relative viability ([1]; first compound 0.1 µM) | relative viability ([1]; first compound 0.3162 µM) | relative viability ([1]; first compound 1 µM) | relative viability (BAM7 + Decitabine; first compound 0.5 µM) | relative viability (BAM7 + Decitabine; first compound 5 µM) | relative viability (BAM7 + Decitabine; first compound 50 µM) | relative viability ([2]; first compound 0.01 µM) | relative viability ([2]; first compound 0.03162 µM) | relative viability ([2]; first compound 0.1 µM) | relative viability ([2]; first compound 0.3162 µM) | relative viability ([2]; first compound 1 µM) | relative viability (BAM7 + Decitabine; first compound 15.81 µM) |
| --- | --- | --- | --- | --- | --- | --- | --- | --- | --- | --- | --- | --- | --- | --- | --- | --- | --- | --- |
| LCLC-97TM1 | 0.305 | 0.386 | 0.245 | 0.332 | 0.203 | 0.31 | 0.211 | 0.271 | 0.204 | 0.252 | 0.269 | 0.24 | 0.8 | 0.722 | 0.774 | 0.624 | 0.664 | – |
| NCI-H1703 | 0.694 | 0.652 | 0.621 | 0.633 | – | – | – | – | – | – | – | – | – | – | – | – | – | – |
| LCLC-103H | 1.08 | 1.03 | 1.01 | 0.804 | 0.41 | 0.555 | 0.432 | 0.472 | 0.453 | 0.751 | 0.77 | 0.708 | 0.87 | 0.752 | 0.725 | 0.757 | 0.81 | 0.709 |
| Calu-6 | 0.883 | 0.903 | 0.783 | 0.675 | – | – | – | – | – | – | – | – | – | – | – | – | – | – |
| NCI-H2342 | – | – | – | – | 0.521 | 0.588 | 0.466 | 0.572 | 0.612 | 0.821 | 0.669 | 0.551 | 0.713 | 0.647 | 0.579 | 0.724 | 0.782 | 0.594 |
| EBC-1 | 0.216 | 0.201 | 0.191 | 0.175 | – | – | – | – | – | – | – | – | – | – | – | – | – | – |
| NCI-H1299 | 0.98 | 1.01 | 1.01 | 0.946 | – | – | – | – | – | – | – | – | – | – | – | – | – | – |
| NCI-H2228 | 0.657 | 0.426 | 0.349 | 0.641 | 0.222 | 0.278 | 0.229 | 0.246 | 0.252 | – | – | – | 0.539 | 0.828 | 0.409 | 0.7 | 0.497 | – |
| NCI-H522 | – | – | – | – | 0.56 | 0.55 | 0.52 | 0.517 | 0.564 | 0.729 | 0.638 | 0.671 | 0.944 | 0.911 | 0.853 | 0.847 | 0.938 | 0.687 |
| IA-LM | 0.725 | 1.16 | 0.619 | 0.784 | – | – | – | – | – | – | – | – | 1.04 | 0.961 | 0.953 | 0.859 | 1 | – |
| NCI-H1793 | – | – | – | – | 0.361 | 0.421 | 0.487 | 0.343 | 0.35 | 0.469 | 0.552 | 0.486 | 0.652 | 0.692 | – | 0.605 | 0.704 | 0.467 |
| CAL-12T | 0.737 | 0.941 | 0.695 | 0.652 | 0.351 | 0.354 | 0.303 | 0.309 | 0.298 | – | – | – | 0.747 | 0.679 | 0.683 | 0.675 | 0.603 | – |
